In the NIST ThermoML archive (doi:10.1021/acs.jced.8b00585):
Numbers after ± are expanded uncertainties.

Settings: Liquid; for Critical pressure: Direct measurement; for Critical temperature: Visual observation in an unstirred cell

Critical pressure [kPa]	Critical temperature [K]	SMILES
4406 ± 22	563 ± 0.4	CCCCO [butan-1-ol]
2106 ± 15	617.7 ± 0.4	CCCCCCCCCC [decane]
2736 ± 17	540.1 ± 0.4	CCCCCCC [heptane]
3033 ± 18	507.8 ± 0.4	CCCCCC [hexane]
2278 ± 16	594.5 ± 0.4	CCCCCCCCC [nonane]
2496 ± 16	568.9 ± 0.4	CCCCCCCC [octane]
